Laboratory results reported in patent publication US6506766B1 (Abbott Laboratories, priority 1998, dated 2003).
Where two headings read alike, the source gives them in different places.

Key:
[1] = biological target: T1, human progesterone receptor-A [PRA] isoform (Homo sapiens, UniProt P06401); test: Radioligand binding with human progesterone receptor cytosol ([3H]-progesterone competition); settings: PRA cytosol expressed in insect SF21 cells, [3H]Prog ~0.8 nM, 4° C. overnight; Ki by Cheng-Prusoff, KL ~4.5 nM; read-out: Ki (nM) PR
T1 construct: host or cells: insect SF21 cells (baculovirus)
T1 sequence (P06401 1-769 isoform P06401-2): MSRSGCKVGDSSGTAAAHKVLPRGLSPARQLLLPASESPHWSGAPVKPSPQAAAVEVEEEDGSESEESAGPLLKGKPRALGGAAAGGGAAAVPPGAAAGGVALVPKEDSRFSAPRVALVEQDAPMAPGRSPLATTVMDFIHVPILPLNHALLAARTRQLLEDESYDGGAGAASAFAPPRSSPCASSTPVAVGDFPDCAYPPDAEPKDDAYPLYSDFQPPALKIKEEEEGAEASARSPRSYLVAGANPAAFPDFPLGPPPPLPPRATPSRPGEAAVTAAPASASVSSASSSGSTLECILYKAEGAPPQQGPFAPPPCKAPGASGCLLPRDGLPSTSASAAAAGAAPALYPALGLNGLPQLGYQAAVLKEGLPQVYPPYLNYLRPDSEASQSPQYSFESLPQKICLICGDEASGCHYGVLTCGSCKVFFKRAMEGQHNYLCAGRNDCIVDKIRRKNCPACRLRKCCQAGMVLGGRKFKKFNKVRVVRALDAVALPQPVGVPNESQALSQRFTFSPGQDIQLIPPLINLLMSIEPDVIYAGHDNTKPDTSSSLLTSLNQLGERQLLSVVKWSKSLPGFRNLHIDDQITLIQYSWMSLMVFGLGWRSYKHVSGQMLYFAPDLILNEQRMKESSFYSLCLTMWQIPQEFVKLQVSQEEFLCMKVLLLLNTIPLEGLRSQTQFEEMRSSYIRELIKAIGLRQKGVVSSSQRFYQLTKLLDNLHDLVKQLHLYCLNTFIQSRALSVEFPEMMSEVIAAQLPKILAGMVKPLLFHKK

[2] = biological target: T2, human glucocorticoid receptor-α [GRX] isoform (Homo sapiens, UniProt P04150); test: Radioligand binding with human glucocorticoid receptor cytosol ([3H]-dexamethasone competition)
T2 construct: host or cells: insect SF21 cells (baculovirus)
T2 sequence (P04150 1-777): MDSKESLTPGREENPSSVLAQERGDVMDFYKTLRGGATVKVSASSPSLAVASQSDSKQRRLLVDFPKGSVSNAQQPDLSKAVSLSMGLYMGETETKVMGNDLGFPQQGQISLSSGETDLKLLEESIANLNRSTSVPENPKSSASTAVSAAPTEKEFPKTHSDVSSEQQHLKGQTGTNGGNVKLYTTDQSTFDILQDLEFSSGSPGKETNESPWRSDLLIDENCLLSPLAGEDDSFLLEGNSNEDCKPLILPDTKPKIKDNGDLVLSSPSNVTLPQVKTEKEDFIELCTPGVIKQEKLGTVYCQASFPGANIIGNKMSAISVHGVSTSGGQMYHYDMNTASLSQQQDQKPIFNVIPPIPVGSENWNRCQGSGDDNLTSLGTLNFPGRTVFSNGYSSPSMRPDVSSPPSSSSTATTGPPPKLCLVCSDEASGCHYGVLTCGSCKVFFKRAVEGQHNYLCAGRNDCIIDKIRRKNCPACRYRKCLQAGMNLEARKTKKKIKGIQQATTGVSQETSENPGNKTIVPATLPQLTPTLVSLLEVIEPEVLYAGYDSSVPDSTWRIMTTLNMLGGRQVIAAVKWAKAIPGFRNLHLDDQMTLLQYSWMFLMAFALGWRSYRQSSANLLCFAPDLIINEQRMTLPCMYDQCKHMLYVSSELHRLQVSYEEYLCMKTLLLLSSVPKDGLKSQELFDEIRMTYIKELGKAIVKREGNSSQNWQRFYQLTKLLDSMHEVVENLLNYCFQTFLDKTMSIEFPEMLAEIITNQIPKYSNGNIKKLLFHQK

[3] = GRX cytosol expressed in insect SF21 cells, [3H]-Dex ~0.9 nM, 4° C. overnight, Ki by Cheng-Prusoff, KL ~[…], read-out: Ki (nM) GR

| Structure (SMILES) | Ki [1] [nM] | Ki [2, 3] [nM] | Ki ([2]; Ki (nM) GR) [nM] |
| --- | --- | --- | --- |
| COc1cccc2c1-c1ccc3c(c1C(C1C=C(COC(C)=O)CCC1)O2)C(C)=CC(C)(C)N3 [Example 163, rel (5R, 3′R) 2,5-Dihydro-10-methoxy-5-(1-acetoxymethyl-3-cyclohexenyl)-2,2,4-trimethyl-1H-[1]benzopyrano[3,4-f]quinoline] | ≥ 10000 | 2.6 |  |
| COCC1=CC(C2Oc3cccc(OC)c3-c3ccc4c(c32)C(C)=CC(C)(C)N4)CCC1 (centres unmarked) [Example 164] | ≥ 10000 | 36 |  |
| CNCC1=CC(C2Oc3cccc(OC)c3-c3ccc4c(c32)C(C)=CC(C)(C)N4)CCC1 [Example 170, rel (5R, 3′R) 2,5-Dihydro-10-methoxy-5-(1-(N-methylamino)methyl-3-cyclohexenyl)2,2,4-trimethyl-1H-[1]benzoppyrano[3,4-f]quinoline] | ≥ 10000 | 82 |  |
| C=C(C)CC1Oc2cccc(OC)c2-c2ccc3c(c21)C(C)=CC(C)(C)N3 (centres unmarked) [Example 171, 2,5-Dihydro-10-methoxy-5-(2-methyl-3-propenyl)-2,2,4-trimethyl-1H-[1]benzopyrano[3,4-f]quinoline] | 7430 | 3.3 |  |
| COc1cccc2c1-c1ccc3c(c1C(CC1CO1)O2)C(C)=CC(C)(C)N3 (centres unmarked) [Example 175, 2,5-Dihydro-10-methoxy-5-(1,2-epoxy-3-propenyl)-2,2,4-trimethyl-1H-[1]benzopyrano[3,4-f]quinoline] | 7700 | 44 |  |
| COc1cccc2c1-c1ccc3c(c1C(CCCN1C(=O)c4ccccc4C1=O)O2)C(C)=CC(C)(C)N3 (centres unmarked) [Example 176] | > 10000 | 88 |  |
| COc1cccc2c1-c1ccc3c(c1C(CCCNC(=O)NN)O2)C(C)=CC(C)(C)N3 (centres unmarked) [Example 178, 2,5-Dihydro-10-methoxy-5-(1-(hydrazinocarbonylamino)-3-propyl)-2,2,4-trimethyl-1H-[1]benzopyrano[3,4-f]quinoline] | ≥ 10000 | 468 |  |
| COC(=O)/C=C/C1Oc2cccc(OC)c2-c2ccc3c(c21)C(C)=CC(C)(C)N3 (centres unmarked) [Example 179, (E) 2,5-Dihydro-10-methoxy-5-(2-carbomethoxy-1-ethenyl)-2,2,4-trimethyl-1H-[1]benzopyrano[3,4-f]quinoline] | 2750 | 9.5 |  |
| C/C=C\C1Oc2cccc(OC)c2-c2ccc3c(c21)C(C)=CC(C)(C)N3 (centres unmarked) [Example 180, (Z)-2,5-Dihydro-10-methoxy-5-(1-propenyl)-2,2,4-trimethyl-1H-[1]benzopyrano[3,4-f]quinoline] | 733 | 18 |  |
| COc1cccc2c1-c1ccc3c(c1C(/C=C/CO)O2)C(C)=CC(C)(C)N3 (centres unmarked) [Example 181, (E) 2,5-Dihydro-10-methoxy-5-(3-hydroxy-1-propenyl)-2,2,4-trimethyl-1H-[1]benzopyrano[3,4-f]quinoline] | ≥ 10000 | 207 |  |
| COc1cccc2c1-c1ccc3c(c1C(/C=C/COC(=O)N(C)C)O2)C(C)=CC(C)(C)N3 (centres unmarked) [Example 182, (E) 2,5-Dihydro-10-methoxy-5-(3-(N,N-dimethylaminocarbonyloxy)-1-propenyl)-2,2,4-trimethyl-1H-[1]benzopyrano[3,4-f]quinoline] | ≥ 10000 | 23 |  |
| COCOC/C=C/C1Oc2cccc(OC)c2-c2ccc3c(c21)C(C)=CC(C)(C)N3 (centres unmarked) [Example 183, (E) 2,5-Dihydro-10-methoxy-5-(3-methoxymethoxy-1-propenyl)-2,2,4-trimethyl-1H-[1]benzopyrano[3,4-f]quinoline] | ≥ 10000 | 38 |  |
| COc1cccc2c1-c1ccc3c(c1C(CC(=O)N(C)OC)O2)C(C)=CC(C)(C)N3 (centres unmarked) [Example 185, Methyl 2-(2,5-Dihydro-10-methoxy-2,2,4-trimethyl-1H-[1]benzopyrano[3,4-f]quinolin-5-yl)acetyl Hydroxamate] | ≥ 10000 | 288 |  |
| COc1cccc2c1-c1ccc3c(c1C(CC=O)O2)C(C)=CC(C)(C)N3 (centres unmarked) [Example 186, 2-(2,5-Dihydro-10-methoxy-2,2,4-trimethyl-1H-[1]benzopyrano[3,4-f]quinolin-5-yl)acetaldehyde] | ≥ 10000 | 90 |  |
| COc1cccc2c1-c1ccc3c(c1C(CC=C1CCCC1)O2)C(C)=CC(C)(C)N3 (centres unmarked) [Example 188, 2,5-Dihydro-10-methoxy-5-(2-cyclopentylidenylethyl)-2,2,4-trimethyl-1H-[1]benzopyrano[3,4-f]quinoline] | 5300 |  | 4.9 |
| COc1cccc2c1-c1ccc3c(c1C(CC=C(F)F)O2)C(C)=CC(C)(C)N3 (centres unmarked) [Example 193, 2,5-Dihydro-10-methoxy-5-(1,1-difluoro-1-propen-3-yl)-2,2,4-trimethyl-1H-[1]benzopyrano[3,4-f]quinoline] | 2180 |  | 2 |

More lines, main results first:

| Ki [1] [nM] | Ki [2, 3] [nM] | Structure (SMILES) | Ki ([2]; Ki (nM) GR) [nM] |
| --- | --- | --- | --- |
| 1590 | 6.25 | COc1cccc2c1-c1ccc3c(c1C(CC=C(C)C)O2)C(C)=CC(C)(C)N3 (centres unmarked) [Example 190, 2,5-Dihydro-10-methoxy-5-(3-methyl-2-butenyl)-2,2,4-trimethyl-1H-[1]benzopyrano[3,4f-]quinoline] |  |
| 1190 | 2.9 | C/C=C/CC1Oc2cccc(OC)c2-c2ccc3c(c21)C(C)=CC(C)(C)N3 (stereo not drawn) [Example 191, trans 2,5-Dihydro-10-methoxy-5-(2-butenyl)-2,2,4-trimethyl-1H-[1]benzopyrano[3,4-f]quinoline] |  |
| ≥ 10000 | 3.1 | CC/C=C/CC1Oc2cccc(OC)c2-c2ccc3c(c21)C(C)=CC(C)(C)N3 (stereo not drawn) [Example 192, trans 2,5-Dihydro-10-methoxy-5-(2-penten-1-yl)-2,2,4-trimethyl-1H-[1]benzopyrano[3,4-f]quinoline] |  |
| ≥ 10000 | 7.7 | COC(=O)/C=C/CC1Oc2cccc(OC)c2-c2ccc3c(c21)C(C)=CC(C)(C)N3 (centres unmarked) [Example 194] |  |
| ≥ 10000 | 25 | COc1cccc2c1-c1ccc3c(c1C(C/C=C/CO)O2)C(C)=CC(C)(C)N3 (centres unmarked) [Example 195, (E) 2,5-Dihydro-10-methoxy-5-(4-hydroxy-2-buten-1-yl)-2,2,4-trimethyl-1H-[1]benzopyrano[3,4-f]quinoline] |  |
| ≥ 10000 | 1.1 | COc1cccc2c1-c1ccc3c(c1C(C/C=C/COC(=O)N(C)C)O2)C(C)=CC(C)(C)N3 (centres unmarked) [Example 196, (E) 2,5-Dihydro-10-methoxy-5-(4-(N,N-dimethylaminocarbonyloxy)-2-buten-1-yl)-2,2,4-trimethyl-1H-[1]benzopyrano[3,4-f]quinoline] |  |
| ≥ 10000 | 28 | CNC(=O)OC/C=C/CC1Oc2cccc(OC)c2-c2ccc3c(c21)C(C)=CC(C)(C)N3 (centres unmarked) [Example 197, (E) 2,5-Dihydro-10-methoxy-5-(4-(N-methylaminocarbonyloxy)-2-buten-1-yl)-2,2,4-trimethyl-1H-[1]benzopyrano[3,4-f]quinoline] |  |
| 2130 | 0.65 | C/C=C/CC1Oc2cccc(OC)c2-c2ccc3c(c21)C(C)=CC(C)(C)N3 (centres unmarked) [Example 198, (E) 2,5-Dihydro-10-methoxy-5-(2-butenyl)-2,2,4-trimethyl-1H-[1]benzopyrano[3,4-f]quinoline] |  |
| ≥ 10000 | 45 | COc1cccc2c1-c1ccc3c(c1C(CCOC(=O)NCc1ccccc1)O2)C(C)=CC(C)(C)N3 (centres unmarked) [Example 200, 2,5-Dihydro-10-methoxy-5-(2-(N-benzylcarbonyloxy)ethyl)-2,2,4-trimethyl-1H-[1]benzopyrano[3,4-f]quinoline] |  |
